Holding throughout (experiment): NCI tumour cell line growth inhibition, 48 h
Experiment [1] relates to SR.
In experiment [2] the test system is HCT-116.
Experiment [3] concerns M14.
Experiment [4] concerns ACHN.
For experiment [5], the system named is HT-29.
Experiment [6] concerns OVCAR-3.
For experiment [7], the system named is SNB-19.
Experiment [8] has as its system UACC-257.
Experiment [9] has as its system NCI-H23.
Experiment [10] relates to CCRF-CEM.
The test system of experiment [11] is SF-539.
Experiment [12] deals with Malme-3M.
For experiment [13], the system named is 786-0.
Experiment [14] deals with EKVX.
For experiment [15], the system named is OVCAR-4.
Experiment [16] has as its system IGROV-1.
Experiment [17] deals with NCI-H226.
Experiment [18] has as its system NCI-H522.
Experiment [19] relates to SNB-75.
The subject of experiment [20] is CAKI-1.

Each structure is given as a SMILES string.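 Protocol summary: plate cells (96-well), add compound at 5 concentrations, incubate 48 h, interpolate endpoints linearly. GI50 is the concentration that inhibits growth by half.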 Activity calls are given as the source filed them. Cut-off read from the data, not from the text of the source: active = GI50 up to about 1.1 µM and inactive = higher. Bounds are passed on as bounds.

These results are taken from ChEMBL document CHEMBL1201862, “PubChem BioAssay data set” (2004).

For `CC(=O)ON(C(C)=O)c1ccc(-c2nc3ccccc3s2)cc1`, the GI50 is 25.6 µM (inactive) in [1]; 24.5 µM (inactive) in experiment [2]; 26.4 µM (inactive) in experiment [3]; 19.4 µM (inactive) in [4]; 24 µM (inactive) in experiment [5]; 22.1 µM (inactive) in experiment [6]. The GI50 is 34.7 µM (inactive) in [7]; 37 µM (inactive) in experiment [8]; 26 µM (inactive) in [9]; 7.35 µM (inactive) in experiment [10]; 15.3 µM (inactive) in experiment [11]; 14.7 µM (inactive) in experiment [12]. The GI50 in [13] was 30.2 µM (inactive); in experiment [14], 13.1 µM (inactive); in [15], 38.7 µM (inactive); in experiment [16], 0.791 µM (active); in [17] it was 0.276 µM (active); in experiment [18] it was 15.1 µM (inactive). Moreover, the GI50 in experiment [19] was 24.5 µM (inactive).
As to `COc1ccc(C2S/C(=C\c3cccc([N+](=O)[O-])c3)C(=O)N2NC(=O)Cc2ccccc2)cc1` (stereo unspecified), the GI50 in [1], in [2], in [3], in experiment [4], in experiment [5] and in experiment [8] was > 100 µM (inactive) in each case. Moreover, the GI50 in experiment [9], in [10], in experiment [11], in experiment [12], in [13] and in experiment [15] was > 100 µM (inactive) throughout. Also, the GI50 in experiment [16], in experiment [17], in experiment [18], in experiment [20] and in experiment [19] was > 100 µM (inactive) throughout.
Turning to `COc1c(C(=O)O)oc2c(OC)cccc12`, the GI50 in [1], in [2], in experiment [3], in [4], in [5] and in experiment [6] was > 100 µM (inactive) each time. Besides, the GI50 in experiment [7], in experiment [8], in experiment [9], in experiment [10], in experiment [11] and in experiment [12] was > 100 µM (inactive) in each case. In addition, the GI50 in experiment [13], in experiment [14], in experiment [15], in experiment [16], in [17] and in experiment [18] was > 100 µM (inactive) each time. Further, the GI50 in [19] was 29.9 µM (inactive).
Regarding `C/C(Sc1ccccc1)=C1/CCCN(Cc2ccccc2)C1`, the GI50 is 16.1 µM (inactive) in experiment [1]; 11.9 µM (inactive) in [3]; 31.4 µM (inactive) in [4]; 35.6 µM (inactive) in experiment [5]; 16.6 µM (inactive) in experiment [6]; 36.9 µM (inactive) in experiment [7]. Also, the GI50 in experiment [8] was 18.7 µM (inactive); in [9], 23.9 µM (inactive); in experiment [10], 20.2 µM (inactive); in [11], 28 µM (inactive); in [12] it was 14.3 µM (inactive); in experiment [13] it was 19.5 µM (inactive). The GI50 in experiment [14] was 32.3 µM (inactive); in experiment [15], 35.2 µM (inactive); in [16], 36.3 µM (inactive); in [17] it was 12.9 µM (inactive); in [18], 15.8 µM (inactive); in experiment [20] it was 24.9 µM (inactive). Moreover, in experiment [19], the GI50 is 23.6 µM (inactive).
With `CSC(=S)N/N=C/c1nccc2ccccc12`, the GI50 in [1] was 0.291 µM (active); in experiment [2], 1.25 µM (inactive); in [3] it was 1.36 µM (inactive); in experiment [4], 1.23 µM (inactive); in [5], 0.701 µM (active); in experiment [7], 2.29 µM (inactive). Moreover, the GI50 in [8] was 2.07 µM (inactive); in experiment [9], 1.42 µM (inactive); in experiment [10], 0.115 µM (active); in [11], 1.08 µM (active); in experiment [12] it was 1.34 µM (inactive); in experiment [13], 2.39 µM (inactive). The GI50 in experiment [14] was 2.52 µM (inactive); in experiment [15], 1.16 µM (inactive); in experiment [16], 1.91 µM (inactive); in experiment [17], 1.69 µM (inactive); in experiment [18] it was 0.34 µM (active); in [20], 2.34 µM (inactive). Besides, the GI50 in experiment [19] was 0.522 µM (active).
Take `C1CCOC2(CCC3(CC2)OCCCCO3)OC1`: the GI50 in [1], in experiment [2], in [3], in [4], in [7] and in experiment [8] was > 100 µM (inactive) in each case. The GI50 in experiment [10], in [11], in experiment [12], in experiment [13], in experiment [15] and in [16] was > 100 µM (inactive) in each case. Further, the GI50 in [17], in experiment [18], in [20] and in experiment [19] was > 100 µM (inactive) each time.
Turning to `CC(=O)O[C@]1(C)OC(=O)[C@@H](CC(C)C)N1[N+](=O)[O-]`, the GI50 in experiment [1], in experiment [2], in experiment [3], in experiment [4], in experiment [5] and in experiment [6] was > 100 µM (inactive) in each case. In addition, the GI50 in experiment [7], in experiment [8], in experiment [9], in [10], in [11] and in [12] was > 100 µM (inactive) in each case. Besides, the GI50 in experiment [13], in [14], in [15], in experiment [16], in [17] and in experiment [18] was > 100 µM (inactive) throughout. For the same compound, the GI50 in experiment [19] was > 100 µM (inactive).
`CC(=O)Nc1ccc(-c2nnc(SCC(=O)Nc3ccccc3[N+](=O)[O-])o2)cc1`: the GI50 in experiment [1] is 40.7 µM (inactive); in experiment [2], > 100 µM (inactive); in [3], > 100 µM (inactive); in experiment [4] it was > 100 µM (inactive); in experiment [5], > 100 µM (inactive); in [6] it was 34.4 µM (inactive). The GI50 in [8] was > 100 µM (inactive); in experiment [9] it was > 100 µM (inactive); in [10], > 100 µM (inactive); in [11] it was 34.6 µM (inactive); in [12], > 100 µM (inactive); in [13], > 100 µM (inactive). Moreover, the GI50 was 73.1 µM (inactive) in experiment [15]; > 100 µM (inactive) in experiment [16]; > 100 µM (inactive) in [17]; 45.9 µM (inactive) in experiment [18]; > 100 µM (inactive) in [20]; 92.7 µM (inactive) in [19].
